Test results as given in publication PMC9293909 (Nature Communications, 2022).

What was measured:
rA3R [1] = target: T1, rA3R (Rattus norvegicus, UniProt P28647); assay: NanoBRET competition binding with AV039; settings: displacement of AV039; read-out: pKi rA3R (converted)
T1 construct: expressed in transfected cells; host or cells: Flp-In-CHO (ThermoFisher R75807), pcDNA5/FRT
T1 sequence (P28647 1-320): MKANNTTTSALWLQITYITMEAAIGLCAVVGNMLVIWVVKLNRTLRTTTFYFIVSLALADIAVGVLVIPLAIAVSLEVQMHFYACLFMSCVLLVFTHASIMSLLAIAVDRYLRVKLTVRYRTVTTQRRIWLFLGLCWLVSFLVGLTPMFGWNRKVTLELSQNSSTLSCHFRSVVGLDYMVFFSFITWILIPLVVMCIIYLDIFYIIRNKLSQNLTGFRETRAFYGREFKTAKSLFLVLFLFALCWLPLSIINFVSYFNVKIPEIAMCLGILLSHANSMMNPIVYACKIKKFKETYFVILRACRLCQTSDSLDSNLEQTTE
Procedure: Here data was fitted with the ‘two-site Ki model’, build into Prism to determine high affinity and low affinity values for the unlabelled agonists. […] BRET was measured following the addition of the Nluc substrate, Furimazine (0.1 μM).

rA3R [2] = target: T1, rA3R; assay: cAMP inhibition at rA3R (Flp-In-CHO); format: cell-based
Description: Cell lines were maintained using standard subculturing routines as guided by the European Collection of Cell Culture (ECACC) and checked annually for mycoplasma infection using an EZ-PCR mycoplasma test kit from Biological Industries (Kibbutz Beit-Haemek, Israel). To investigate the signalling properties of the rat A3R (rA3R) and mutants of the human A1R (hA1R), stable cell lines were generated using Flp-In-CHO cells (ThermoFisher - R75807). Untagged hA1R from sigNanoLuciferase (Nluc)-A1R in pcDNA3.1+ and untagged rA3R from sigNluc-A3R in pcDNA3.1 + (both gifted by Dr Steve Briddon (University of Nottingham)) were cloned into the pcDNA5/FRT expression vector (Thermo Fisher Scientific). Mutations within the hA1R were made using the QuikChange Lightening Site-Directed Mutagenesis Kit (Agilent Technologies) in accordance with the manufacturer’s instructions. Constructs for generating Goa/b interfering and scrambled peptides were generated by PCR and cloned into the BamHI/HindIII site of pcDNA3.1- as described in Gilchrist et al.[60],. Prior to the initiator codon a Kozak sequence was included for enhanced translation. The peptide sequences used were: for Goa […], for Gob […], and for the scrambled peptide […] was used. Constructs were sequenced to confirm fidelity. Flp-In-CHO cells were generated through co-transfection of the cell line with pcDNA5/FRT expression vector (Thermo Fisher Scientific) containing the WT or mutant hA1R, or rA3R, and the Flp recombinase expressing plasmid, pOG44 (Thermo Fisher Scientific), in accordance with the manufacturer’s instructions. […] CHO cell lines expressing ARs of interest (including mutants of the hA1R) were routinely cultured in Ham’s F-12 nutrient mix supplemented with 10% foetal bovine serum (FBS), at 37 °C with 5% CO2, in a humidified atmosphere.

[3] = system: native presynaptic A1Rs, rat hippocampal slices; assay: Extracellular fEPSP recording, inhibition of excitatory synaptic transmission in hippocampal slices; format: cell-based
Procedure: Rats were kept on a 12-hour light-dark cycle with slices made 90 min after entering the light cycle. […] The brain was removed, cut down the midline and the two sides of the brain stuck down to a metal base plate using cyanoacrylate glue. […] Slices were stored at 34 °C for 1–6 h in aCSF (1 mM MgCl2, 2 mM CaCl2) before use.
A slice was transferred to the recording chamber, submerged in aCSF and perfused at 4–6 ml min^−1 (32 ± 0.5 °C). The slice was placed on a grid allowing perfusion above and below the tissue and all tubing was gastight (to prevent loss of oxygen). […] Field excitatory postsynaptic potentials (fEPSPs) were evoked with either an isolated pulse stimulator model 2100 (AM Systems, WA) or ISO-Flex (AMPI, Jerusalem, Israel). For fEPSPs a 10–20 min baseline was recorded at a stimulus intensity that gave 40-50% of the maximal response. […] For fEPSP slope, a 1 ms linear region after the fibre volley was measured. Extracellular recordings were made independently on two electrophysiology rigs.
Statistical significance was tested as indicated in the text using paired or unpaired two-tailed t-tests or one-way or two-way ANOVAs with repeated measures (RM) as appropriate. Bonferroni corrections for multiple comparisons were performed. All in vitro cell signalling assay data was analysed using Prism 8.4 (Graphpad software, San Diego, CA), with all concentration-response curves being fitted using a 3 parameter logistic equation to calculate response range and IC50. All cAMP data was normalised to a forskolin concentration-response curve ran in parallel to each assay.

[4] = target: T2, β-arrestin2 recruitment to hA3R (Homo sapiens, UniProt P0DMS8); assay: BRET β-arrestin2 recruitment to A3R, HEK 293T; format: cell-based
T2 construct: expressed in transfected cells; host or cells: HEK 293T (ATCC CRL-3216), transient
T2 sequence (P0DMS8 whole entry): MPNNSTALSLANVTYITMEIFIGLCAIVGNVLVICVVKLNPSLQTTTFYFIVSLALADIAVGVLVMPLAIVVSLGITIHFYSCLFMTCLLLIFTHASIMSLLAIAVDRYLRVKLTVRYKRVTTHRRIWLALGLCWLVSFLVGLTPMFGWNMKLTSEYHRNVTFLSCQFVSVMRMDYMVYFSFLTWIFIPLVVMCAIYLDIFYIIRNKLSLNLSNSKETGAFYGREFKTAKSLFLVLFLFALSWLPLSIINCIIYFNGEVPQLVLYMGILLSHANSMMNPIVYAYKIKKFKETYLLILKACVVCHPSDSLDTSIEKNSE

[5] = system: CA1 pyramidal cells (Goa / Gob signalling); assay: Whole-cell voltage-clamp, adenosine-induced outward current with intracellular G protein interfering peptides; format: cell-based, rat; settings: adenosine 10 µM; control conditions
Procedure: A slice was transferred to the recording chamber and perfused at 3 ml min^−1 with aCSF at 32 ± 0.5 °C. Slices were visualised using IR-DIC optics with an Olympus BX151W microscope (Scientifica) and a CCD camera (Hitachi). […] Voltage and current recordings were obtained using an Axon Multiclamp 700B amplifier (Molecular Devices, USA) and digitised at 20 KHz. Data acquisition and analysis was performed using pClamp 10 (Molecular Devices, USA). For voltage-clamp experiments, CA1 pyramidal cells were held at −60 mV. Peptides to interfere with G protein signalling were introduced via the patch pipette into the recorded cell.
Drugs were made up as stock solutions (1-10 mM) and then diluted in aCSF or saline on the day of use. […] MRS1523 was purchased from Cayman Chemicals (Cambridge Bioscience Ltd., Cambridge UK). […] CA200645 and peptides for interfering with G protein signalling were obtained from Hello Bio (Bristol, UK) and were based on published sequences. […] The scrambled version was […]. […] Peptides were made up as stock solutions (2 mM) and stored at −20 °C. The stock solutions were dissolved in filtered intracellular solution just before use.

frog heart = assay: Isolated frog heart preparation, heart rate; settings: adenosine 30 µM
Procedure: Young adult male Xenopus leavis frogs were obtained from Portsmouth Xenopus Resource Centre. […] The animals were dissected to reveal the heart and the pericardium was carefully removed. Heart contractions were measured with a force transducer (AD instruments). Heart rate was acquired via a PowerLab 26 T (AD instruments) controlled by LabChart 7 (AD instruments). The heart was regularly washed with Ringer solution and drugs were applied directly to the heart.

[6] = system: heart rate and mean arterial blood pressure; assay: Urethane-anaesthetised rat, heart rate and arterial blood pressure; settings: adenosine 1 mg kg^−1 IV
Description: Anaesthesia was induced in adult male Sprague–Dawley rats (230-330 g) with isofluorane (2–4%; Piramal Healthcare). The femoral vein was catheterised for drug delivery. Anaesthesia was maintained with urethane (1.2–1.7 g kg^−1; Sigma) in sterile saline delivered via the femoral vein catheter. […] The trachea was cannulated and the femoral artery catheterised, and both were connected to pressure transducers (Digitimer) to record respiratory airflow and arterial blood pressure, respectively. Blood pressure and airflow signals were amplified using the NeuroLog system (Digitimer) connected to a micro1401 interface and acquired on a computer using Spike2 software (v7.08a; Cambridge Electronic Design). […] Airflow measurements were used to calculate: tidal volume (VT; mL; pressure sensors were calibrated with a 3 mL syringe), and respiratory frequency (f; breaths min^−1; BrPM). Minute ventilation (VE; mL min^−1) was calculated as f × VT.
Cardiovascular and respiratory parameters were allowed to stabilise before experiments began. A1R agonists were administered by intravenous (IV) injection and the changes in HR, MAP, f, VT, and VE were measured. […] All injections were administered IV as a 350 µl·kg^-1 bolus.

`Nc1ncnc2c1ncn2[C@@H]1O[C@H](CO)[C@@H](O)[C@H]1O` [Adenosine] was tested, and the Ki (rA3R [1]) was 1290 nM, the IC50 (rA3R [2]; half-maximal response, cAMP inhibition, read-out: pIC50 rA3R (converted)) was 67.6 nM and the “Range rA3R” value (rA3R [2]; range of response as percentage of response to 10 μM forskolin) was 66.05 ± 5.4%. The IC50 ([3]; Rattus norvegicus, read-out: IC50 inhibition of synaptic transmission) was 20000 ± 4300 nM, the “depression of the fEPSP” value ([3]; adenosine 30 µM) was 66.7 ± 6.7% and the “depression of the fEPSP” value ([3]; adenosine 30 µM in the presence of 2-Cl-IB-MECA 1 µM) was 67.5 ± 6.5%. For the same compound, the “β-arrestin2 recruitment by the A3R” value [4] was “β-arrestin2 recruitment”, the “outward current induced by adenosine” value [5] was 40.6 ± 2.2 pA and the “reduction of heart rate” value (frog heart) was 6.3 ± 0.6 BPM. The “heart rate after application” value (frog heart; before 41.8 ± 1.3 BPM) was 35.5 ± 1.3 BPM, the “reduction of HR” value [6] was ~ 66% and the “reduction of MAP” value [6] was ~ 47%. The MAP after injection ([6]; resting 86 ± 9 mm Hg) was 46 ± 4 mm Hg and the HR after injection ([6]; resting 432 ± 21 BPM) was 147 ± 12 BPM.
